Reference: patent publication US9540391B2, “Isomannide derivatives as inhibitors of soluble epoxide hydrolase” (SANOFI, priority 2013, dated 2017)
pIC50: −log10 of the molar value. Where a name gives a salt, the structure may show the parent alone.

These compounds were tested against T1, recombinant sEH (Homo sapiens, UniProt P34913) (assay: biochemical screening assay for inhibition of soluble epoxide hydrolase (fluorometric, Phome substrate)).
T1 construct: made in house; host or cells: Sf9 insect cells
T1 sequence (P34913 1-555): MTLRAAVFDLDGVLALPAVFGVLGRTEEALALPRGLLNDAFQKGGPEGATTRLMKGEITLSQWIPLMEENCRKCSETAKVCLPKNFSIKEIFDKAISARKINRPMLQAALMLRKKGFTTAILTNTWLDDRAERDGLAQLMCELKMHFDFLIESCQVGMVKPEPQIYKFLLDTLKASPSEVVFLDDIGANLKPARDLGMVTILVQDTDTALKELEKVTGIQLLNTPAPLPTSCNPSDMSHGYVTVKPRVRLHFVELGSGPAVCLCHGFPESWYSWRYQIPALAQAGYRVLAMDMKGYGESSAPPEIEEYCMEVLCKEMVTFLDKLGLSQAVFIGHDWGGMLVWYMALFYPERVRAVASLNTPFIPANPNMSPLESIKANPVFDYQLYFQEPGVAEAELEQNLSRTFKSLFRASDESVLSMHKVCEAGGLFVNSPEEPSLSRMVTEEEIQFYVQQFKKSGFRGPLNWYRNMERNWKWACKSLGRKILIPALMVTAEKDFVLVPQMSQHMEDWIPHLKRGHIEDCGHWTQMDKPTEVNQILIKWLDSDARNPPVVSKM
Procedure, shortened: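 Reading fluorescence before substrate addition and after completion corrected for autofluorescence. Reaction: 5 μM Phome, 2 nM recombinant human sEH (Sf9-expressed), compound 0.0001–10 μM, 25 mM Hepes with 0.01% albumin, 15 min pre-incubation then 60 min at 30 °C; IC50 derived from % inhibition.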

| Compound | pIC50 |
| --- | --- |
| Cc1cc(C)cc(NC(=O)NC2COC3C(C#Cc4ccccc4)COC23)c1 [Example 285, 1-(3,5-Dimethyl-phenyl)-3-[(3S,3aR,6R)-6-((S)-phenylethynyl)-hexahydro-furo[3,2-b]furan-3-yl]-urea] | 7.68 |
| O=C(Nc1ccccc1)N[C@H]1CO[C@@H]2[C@@H]1OC[C@H]2C#Cc1ccccc1 [Example 286, 1-Phenyl-3-[(3S,3aR,6R)-6-((S)-phenylethynyl)-hexa-hydro-furo[3,2-b]furan-3-yl]-urea] | 6.64 |
| O=C(Nc1ccc(OCc2ccccc2)cc1)NC1COC2C(C#Cc3ccccc3)COC12 [Example 287, 1-(4-Benzyloxy-phenyl)-3-[(3S,3aR,6R)-6-((S)-phenylethynyl)-hexahydro-furo[3,2-b]furan-3-yl]-urea] | 7.09 |
| O=C(NCc1ccc(F)cc1)N[C@H]1CO[C@@H]2[C@@H]1OC[C@H]2C#Cc1ccccc1 [Example 288, 1-(4-Fluoro-benzyl)-3-[(3S,3aR,6R)-6-((S)-phenylethynyl)-hexahydro-furo[3,2-b]furan-3-yl]-urea] | 6.83 |
| Cc1cccc(NC(=O)N[C@H]2CO[C@@H]3[C@@H]2OC[C@H]3C#Cc2ccccc2)c1 [Example 289, 1-[(3S,3aR,6R)-6-((S)-Phenylethynyl)-hexahydro-furo[3,2-b]furan-3-yl]-3-m-tolyl-urea] | 7.46 |
| O=C(Nc1ccc(Cl)c(Cl)c1)NC1COC2C(C#Cc3ccccc3)COC12 [Example 290, 1-(3,4-Dichloro-phenyl)-3-[(3S,3aR,6R)-6-((S)-phenylethynyl)-hexahydro-furo[3,2-b]furan-3-yl]-urea] | 7.89 |
| Cc1cccc(CNC(=O)NC2COC3C(C#Cc4ccccc4)COC23)c1 [Example 291, 1-(3-Methyl-benzyl)-3-[(3S,3aR,6R)-6-((S)-phenylethynyl)-hexahydro-furo[3,2-b]furan-3-yl]-urea] | 7.43 |
| O=C(Nc1ccc(F)cc1)NC1COC2C(C#Cc3ccccc3)COC12 [Example 292, 1-(4-Fluoro-phenyl)-3-[(3S,3aR,6R)-6-((S)-phenylethynyl)-hexahydro-furo[3,2-b]furan-3-yl]-urea] | 7.34 |
| O=C(Nc1ccc2c(c1)OCO2)N[C@H]1CO[C@H]2[C@@H]1OC[C@@H]2C#Cc1ccccc1 [Example 293, 1-Benzo[1,3]dioxol-5-yl-3-((3S,3aR,6S,6aR)-6-phenylethynyl-hexahydro-furo[3,2-b]furan-3-yl)-urea] | 7.15 |
| O=C(Nc1cccc(F)c1)N[C@H]1CO[C@H]2[C@@H]1OC[C@@H]2C#Cc1ccccc1 [Example 294, 1-(3-Fluoro-phenyl)-3-((3S,3aR,6S,6aR)-6-phenylethynyl-hexahydro-furo[3,2-b]furan-3-yl)-urea] | 6.91 |
| O=C(Nc1ccc2c(c1)OCCO2)NC1COC2C(C#Cc3ccccc3)COC12 [Example 295, 1-(2,3-Dihydro-benzo[1,4]-dioxin-6-yl)-3-((3S,3aR,6S,-6aR)-6-phenylethynyl-hexa-hydro-furo[3,2-b]furan-3-yl)-urea] | 6.95 |
| O=C(NCCc1cccs1)N[C@H]1CO[C@H]2[C@@H]1OC[C@@H]2C#Cc1ccccc1 [Example 296, 1-((3S,3aR,6S,6aR)-6-Phenylethynyl-hexahydro-furo[3,2-b]furan-3-yl)-3-(2-thiophen-2-yl-ethyl)-urea] | 7.00 |
| O=C(NCCc1ccccc1)N[C@H]1CO[C@H]2[C@@H]1OC[C@@H]2C#Cc1ccccc1 [Example 297, 1-Phenethyl-3-((3S,3aR,6S,6aR)-6-phenylethynyl-hexahydro-furo[3,2-b]furan-3-yl)-urea] | 7.17 |
| O=C(Nc1ccc(OC(F)(F)F)cc1)N[C@H]1CO[C@H]2[C@@H]1OC[C@@H]2C#Cc1ccccc1 [Example 298, 1-((3S,3aR,6S,6aR)-6-Phenylethynyl-hexahydro-furo[3,2-b]furan-3-yl)-3-(4-trifluoromethoxy-phenyl)-urea] | 7.60 |
| O=C(Nc1cccc(C(F)(F)F)c1)N[C@H]1CO[C@H]2[C@@H]1OC[C@@H]2C#Cc1ccccc1 [Example 299, 1-((3S,3aR,6S,6aR)-6-Phenylethynyl-hexahydro-furo[3,2-b]furan-3-yl)-3-(3-trifluoromethyl-phenyl)-urea] | 5.90 |
| O=C(NC1CCCCC1)N[C@H]1CO[C@H]2[C@@H]1OC[C@@H]2C#Cc1ccccn1 [Example 300, 1-Cyclohexyl-3-((3S,3aR,6S,-6aR)-6-pyridin-2-ylethynyl-hexahydro-furo[3,2-b]furan-3-yl)-urea; trifluoroacetate] | 7.72 |
| COc1cc(NC(=O)N[C@H]2CO[C@H]3[C@@H]2OC[C@@H]3C#Cc2ccsc2)cc(OC)c1 [Example 301, 1-(3,5-Dimethoxy-phenyl)-3-((3S,3aR,6S,6aR)-6-thiophen-3-ylethynyl-hexahydro-furo[3,2-b]furan-3-yl)-urea] | 6.98 |
| Cc1cc(C)cc(NC(=O)N[C@H]2CO[C@H]3[C@@H]2OC[C@@H]3C#Cc2ccsc2)c1 [Example 302, 1-(3,5-Dimethyl-phenyl)-3-((3S,3aR,6S,6aR)-6-thiophen-3-ylethynyl-hexahydro-furo[3,2-b]furan-3-yl)-urea] | 7.14 |

Other lines, results leading:

| pIC50 | Compound |
| --- | --- |
| 6.62 | O=C(Nc1ccccc1)NC1COC2C(C#Cc3ccsc3)COC12 [Example 303, 1-Phenyl-3-((3S,3aR,6S,-6aR)-6-thiophen-3-ylethynyl-hexahydro-furo[3,2-b]furan-3-yl)-urea] |
| 6.55 | O=C(NCc1ccc(F)cc1)N[C@H]1CO[C@H]2[C@@H]1OC[C@@H]2C#Cc1ccsc1 [Example 304, 1-(4-Fluoro-benzyl)-3-((3S,3aR,6S,6aR)-6-thiophen-3-ylethynyl-hexahydro-furo[3,2-b]furan-3-yl)-urea] |
| 6.61 | Cc1cccc(CNC(=O)N[C@H]2CO[C@H]3[C@@H]2OC[C@@H]3C#Cc2ccsc2)c1 [Example 305, 1-(3-Methyl-benzyl)-3-((3S,3aR,6S,6aR)-6-thiophen-3-ylethynyl-hexahydro-furo[3,2-b]furan-3-yl)-urea] |
| 6.72 | O=C(Nc1ccc(F)cc1)N[C@H]1CO[C@H]2[C@@H]1OC[C@@H]2C#Cc1ccsc1 [Example 306, 1-(4-Fluoro-phenyl)-3-((3S,3aR,6S,6aR)-6-thiophen-3-ylethynyl-hexahydro-furo[3,2-b]furan-3-yl)-urea] |
| 7.23 | O=C(Nc1ccccc1-c1ccccc1)N[C@H]1CO[C@H]2[C@@H]1OC[C@@H]2C#Cc1ccsc1 [Example 307, 1-Biphenyl-2-yl-3-((3S,3aR,6S,6aR)-6-thiophen-3-ylethynyl-hexahydro-furo[3,2-b]furan-3-yl)-urea] |
| 7.32 | O=C(Nc1ccc(C(F)(F)F)cc1)NC1COC2C(C#Cc3ccsc3)COC12 [Example 308, 1-((3S,3aR,6S,6aR)-6-Thio-phen-3-ylethynyl-hexahydro-furo[3,2-b]furan-3-yl)-3-(4-trifluoromethyl-phenyl)-urea] |
| 7.80 | COC(=O)c1cccc(NC(=O)NC2COC3C(C#Cc4ccsc4)COC23)c1 [Example 309, 3-[3-((3S,3aR,6S,6aR)-6-Thio-phen-3-ylethynyl-hexahydro-furo[3,2-b]furan-3-yl)-ureido]-benzoic acid methyl ester] |
| 7.14 | O=C(Nc1ccc2c(c1)CCC2)N[C@H]1CO[C@H]2[C@@H]1OC[C@@H]2C#Cc1ccsc1 [Example 310, 1-Indan-5-yl-3-((3S,3aR,6S,6aR)-6-thiophen-3-ylethynyl-hexahydro-furo[3,2-b]furan-3-yl)-urea] |
| 6.84 | O=C(Nc1cccc(F)c1)N[C@H]1CO[C@H]2[C@@H]1OC[C@@H]2C#Cc1ccsc1 [Example 311, 1-(3-Fluoro-phenyl)-3-((3S,3aR,6S,6aR)-6-thiophen-3-ylethynyl-hexahydro-furo[3,2-b]furan-3-yl)-urea] |
| 6.97 | CSc1cccc(NC(=O)N[C@H]2CO[C@H]3[C@@H]2OC[C@@H]3C#Cc2ccsc2)c1 [Example 312, 1-(3-Methylsulfanyl-phenyl)-3-((3S,3aR,6S,6aR)-6-thiophen-3-ylethynyl-hexahydro-furo[3,2-b]furan-3-yl)-urea] |
| 7.25 | O=C(NCCc1cccs1)N[C@H]1CO[C@H]2[C@@H]1OC[C@@H]2C#Cc1ccsc1 [Example 313, 1-(2-Thiophen-2-yl-ethyl)-3-((3S,3aR,6S,6aR)-6-thiophen-3-ylethynyl-hexahydro-furo[3,2-b]furan-3-yl)-urea] |
| 7.48 | O=C(NCCc1ccccc1)N[C@H]1CO[C@H]2[C@@H]1OC[C@@H]2C#Cc1ccsc1 [Example 314, 1-Phenethyl-3-((3S,3aR,6S,-6aR)-6-thiophen-3-ylethynyl-hexahydro-furo[3,2-b]furan-3-yl)-urea] |
| 7.82 | O=C(Nc1ccc(OC(F)(F)F)cc1)N[C@H]1CO[C@H]2[C@@H]1OC[C@@H]2C#Cc1ccsc1 [Example 315, 1-((3S,3aR,6S,6aR)-6-Thiophen-3-ylethynyl-hexahydro-furo[3,2-b]furan-3-yl)-3-(4-trifluoromethoxy-phenyl)-urea] |
| 7.06 | O=C(Nc1cccc(C(F)(F)F)c1)N[C@H]1CO[C@H]2[C@@H]1OC[C@@H]2C#Cc1ccsc1 [Example 316, 1-((3S,3aR,6S,6aR)-6-Thiophen-3-ylethynyl-hexahydro-furo[3,2-b]furan-3-yl)-3-(3-trifluoromethyl-phenyl)-urea] |
